# Measurements: PubChem BioAssay (NCI)
#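 Interpolation was linear, between the two tested concentrations surrounding the appropriate level; five concentrations were tested over 48 hours in 96-well plates. At the GI50, growth is halved. TGI marks complete inhibition of growth.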
# Columns and labels:
# Experiment in all cases: growth of human tumour cells (NCI), 48 h
# [1] = test system: M14 melanoma
# [2] = test system: COLO 205 colon
# [3] = test system: HOP-92 NSCLC
# [4] = test system: UACC-62 melanoma
# [5] = test system: HCT-15 colon
# [6] = test system: HT29 colon
# [7] = test system: UO-31 renal
# [8] = test system: SNB-75 CNS
# [9] = test system: HCC-2998 colon
# [10] = test system: SR leukemia
# [11] = test system: RXF 393 renal
# [12] = test system: A549 NSCLC
# [13] = test system: NCI-H522 lung
# [14] = test system: U251 CNS
# [15] = test system: SF-268 CNS
# [16] = test system: KM12 colon
# [17] = test system: HS 578T breast
# [18] = test system: EKVX NSCLC
# [19] = test system: MOLT-4 leukemia
# [20] = test system: NCI-H460 lung
# [21] = test system: NCI-H23 lung
# [22] = test system: HCT-116 colon
# [23] = test system: NCI-H226 lung
# [24] = test system: SF-295 CNS
# [25] = test system: MDA-MB-231 breast
# [26] = test system: DU-145 prostate
# [27] = test system: SNB-19 CNS
# [28] = test system: SW-620 colon
# [29] = test system: OVCAR-3 ovarian
# [30] = test system: MALME-3M melanoma
# [31] = test system: SK-MEL-2 melanoma
# [32] = test system: ACHN renal
# [33] = test system: HOP-62 NSCLC
# [34] = test system: OVCAR-8 ovarian
# [35] = test system: OVCAR-5 ovarian
# [36] = test system: SF-539 CNS
# [37] = test system: 786-0 renal
# [38] = test system: OVCAR-4 ovarian
# [39] = test system: SK-OV-3 ovarian
# [40] = test system: CCRF-CEM leukemia
# [41] = test system: SN12C renal
# [42] = test system: SK-MEL-5 melanoma
# [43] = test system: IGROV1 ovarian
# [44] = test system: HL-60(TB) leukemia
# [45] = test system: K-562 leukemia
# [46] = test system: MCF7 breast
# [47] = test system: LOX IMVI melanoma
# [48] = test system: RPMI-8226 leukemia
# [49] = test system: SK-MEL-28 melanoma
# [50] = test system: TK-10 renal
# [51] = test system: BT-549 breast
# [52] = test system: PC-3 prostate
# [53] = test system: UACC-257 melanoma
# [54] = test system: NCI/ADR-RES ovarian
# [55] = test system: MDA-MB-435
# [56] = test system: CAKI-1 renal
# [57] = test system: A498 renal
# [58] = test system: T-47D breast
smiles,measurement,setting,value
COc1ccc(/C=C(\C#N)c2ccc(OC)cc2)cc1,GI50,[1],8.18 µM
same,TGI,[1],> 100 µM
same,GI50,[2],21.1 µM
same,TGI,[2],> 100 µM
same,GI50,[3],23.5 µM
same,TGI,[3],> 100 µM
same,GI50,[4],10.3 µM
same,TGI,[4],> 100 µM
same,GI50,[5],4.56 µM
same,TGI,[5],> 100 µM
same,GI50,[6],7.1 µM
same,TGI,[6],> 100 µM
same,GI50,[7],> 100 µM
same,TGI,[7],> 100 µM
same,GI50,[8],87.6 µM
same,TGI,[8],> 100 µM
same,GI50,[9],7.38 µM
same,TGI,[9],> 100 µM
same,GI50,[10],2.07 µM
same,TGI,[10],> 100 µM
same,GI50,[11],13.7 µM
same,TGI,[11],> 100 µM
same,GI50,[12],> 100 µM
same,TGI,[12],> 100 µM
same,GI50,[13],42.8 µM
same,TGI,[13],> 100 µM
same,GI50,[14],20.6 µM
same,TGI,[14],> 100 µM
same,GI50,[15],> 100 µM
same,TGI,[15],> 100 µM
same,GI50,[16],3.87 µM
same,TGI,[16],> 100 µM
same,GI50,[17],82.2 µM
same,TGI,[17],> 100 µM
same,GI50,[18],14.5 µM
same,TGI,[18],> 100 µM
same,GI50,[19],5.49 µM
same,TGI,[19],> 100 µM
same,GI50,[20],7.31 µM
same,TGI,[20],> 100 µM
same,GI50,[21],9.77 µM
same,TGI,[21],> 100 µM
same,GI50,[22],7.15 µM
same,TGI,[22],> 100 µM
same,GI50,[23],> 100 µM
same,TGI,[23],> 100 µM
same,GI50,[24],8.01 µM
same,TGI,[24],> 100 µM
same,GI50,[25],33.6 µM
same,TGI,[25],> 100 µM
same,GI50,[26],14.9 µM
same,TGI,[26],> 100 µM
same,GI50,[27],82.8 µM
same,TGI,[27],> 100 µM
same,GI50,[28],5.81 µM
same,TGI,[28],> 100 µM
same,GI50,[29],7.59 µM
same,TGI,[29],52 µM
same,GI50,[30],> 100 µM
same,TGI,[30],> 100 µM
same,GI50,[31],> 100 µM
same,TGI,[31],> 100 µM
same,GI50,[32],76.1 µM
same,TGI,[32],> 100 µM
same,GI50,[33],69.9 µM
same,TGI,[33],> 100 µM
same,GI50,[34],91.8 µM
same,TGI,[34],> 100 µM
same,GI50,[35],62.3 µM
same,TGI,[35],> 100 µM
same,GI50,[36],20.7 µM
same,TGI,[36],> 100 µM
same,GI50,[37],> 100 µM
same,TGI,[37],> 100 µM
same,GI50,[38],27.4 µM
same,TGI,[38],> 100 µM
same,GI50,[39],42 µM
same,TGI,[39],> 100 µM
same,GI50,[40],9.47 µM
same,TGI,[40],> 100 µM
same,GI50,[41],81.7 µM
same,TGI,[41],> 100 µM
same,GI50,[42],4.85 µM
same,TGI,[42],> 100 µM
same,GI50,[43],46.1 µM
same,TGI,[43],> 100 µM
same,GI50,[44],13.5 µM
same,TGI,[44],> 100 µM
same,GI50,[45],2.78 µM
same,TGI,[45],> 100 µM
same,GI50,[46],41.5 µM
same,TGI,[46],> 100 µM
same,GI50,[47],13.3 µM
same,TGI,[47],> 100 µM
same,GI50,[48],9.48 µM
same,TGI,[48],> 100 µM
same,GI50,[49],> 100 µM
same,TGI,[49],> 100 µM
same,GI50,[50],> 100 µM
same,TGI,[50],> 100 µM
same,GI50,[51],22.9 µM
same,TGI,[51],> 100 µM
same,GI50,[52],30 µM
same,TGI,[52],> 100 µM
same,GI50,[53],> 100 µM
same,TGI,[53],> 100 µM
same,GI50,[54],3.13 µM
same,TGI,[54],29.3 µM
same,GI50,[55],0.563 µM
same,TGI,[55],18.4 µM
same,GI50,[56],13.1 µM
same,TGI,[56],> 100 µM
same,GI50,[57],> 100 µM
same,TGI,[57],> 100 µM
same,GI50,[58],32.2 µM
same,TGI,[58],> 100 µM
